Measured values taken from patent publication US11833178B2, “Bifidobacterium longum for treating obesity and weight management” (priority 2017, dated 2023).
In brackets after ≈: the same amount, converted by molar mass.

Each compound was assayed on Bifidobacterium longum APC1472 (assay: Antibiotic susceptibility (VetMIC plates, ISO 10932:2010)). Details: APC1472, 48 h, read-out: MICs.
Format: cell-based, Bifidobacterium longum ssp. longum
Description: Antibiotic susceptibility was tested with […] plates Lact-1 and Lact-2 supplied from SVA (National Veterinary Institute, Uppsala, Sweden). […] MICs were determined as 80% or more reduction in pellet, compared to positive control lane. Borderline cases were interpreted by visual examples from “Methods for Antimicrobial Susceptibility Testing of Anaerobic Bacteria: Approved Standard” (CLSI, 7th edition).

Structure (SMILES) | MIC [µg/mL]
CN[C@H](CC(C)C)C(=O)N[C@H]1C(=O)N[C@@H](CC(N)=O)C(=O)N[C@H]2C(=O)N[C@H]3C(=O)N[C@H](C(=O)N[C@H](C(=O)O)c4cc(O)cc(O)c4-c4cc3ccc4O)[C@H](O)c3ccc(c(Cl)c3)Oc3cc2cc(c3O[C@@H]2O[C@H](CO)[C@@H](O)[C@H](O)[C@H]2O[C@H]2C[C@](C)(N)[C@H](O)[C@H](C)O2)Oc2ccc(cc2Cl)[C@H]1O [Va, Vancomycin] | 0.5 (≈ 0.345 µM)

Same assay, conditions: APC1472, range of MICs for duplicate experiments, 37° C., 48 h, read-out: MICs

Structure (SMILES) | MIC [µg/mL]
O=C(N[C@H](CO)[C@H](O)c1ccc([N+](=O)[O-])cc1)C(Cl)Cl [Cm, Chloramphenicol] | 2 (≈ 6.19 µM)
CN(C)[C@@H]1C(O)=C(C(N)=O)C(=O)[C@@]2(O)C(O)=C3C(=O)c4c(O)cccc4[C@@](C)(O)[C@H]3C[C@@H]12 [Tc, Tetracycline] | 1 (≈ 2.25 µM)

Results, then the compound that gave them:

MIC [µg/mL] | Structure (SMILES)
2 (≈ 5.72 µM) | CC1(C)S[C@@H]2[C@H](NC(=O)[C@H](N)c3ccccc3)C(=O)N2[C@H]1C(=O)O [Am, Ampicillin]
0.06 to 0.12 (≈ 0.0818 to 0.164 µM) | CC[C@H]1OC(=O)[C@H](C)[C@@H](O[C@H]2C[C@@](C)(OC)[C@@H](O)[C@H](C)O2)[C@H](C)[C@@H](O[C@@H]2O[C@H](C)C[C@H](N(C)C)[C@H]2O)[C@](C)(O)C[C@@H](C)C(=O)[C@H](C)[C@@H](O)[C@]1(C)O [Em, Erythromycin]
64 to 128 (≈ 110 to 220 µM) | [H]/N=C(/N)N[C@H]1[C@H](O)[C@@H](O)[C@H](O[C@@H]2O[C@@H](C)[C@](O)(C=O)[C@H]2O[C@@H]2O[C@@H](CO)[C@H](O)[C@@H](O)[C@@H]2NC)[C@@H](N/C(N)=N\[H])[C@@H]1O [Sm, Streptomycin]
